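Tested at 5 concentrations; 48 h exposure; 96-well plates; endpoints linearly interpolated, else capped at highest concentration. At the GI50, growth is halved. TGI: concentration producing complete growth inhibition.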
Experiments:
Experiment in all cases: DTP human tumour cell line panel, 48 h
MOLT-4 leukemia = system: MOLT-4 leukemia
HL-60(TB) leukemia = system: HL-60(TB) leukemia
HCT-116 colon = system: HCT-116 colon
TK-10 renal = system: TK-10 renal
T-47D breast = system: T-47D breast
CAKI-1 renal = system: CAKI-1 renal
SNB-19 CNS = system: SNB-19 CNS
SF-539 CNS = system: SF-539 CNS
OVCAR-5 ovarian = system: OVCAR-5 ovarian
MDA-MB-435 = system: MDA-MB-435
OVCAR-4 ovarian = system: OVCAR-4 ovarian
NCI-H226 lung = system: NCI-H226 lung
SN12C renal = system: SN12C renal
U251 CNS = system: U251 CNS
NCI-H460 lung = system: NCI-H460 lung
K-562 leukemia = system: K-562 leukemia
SR leukemia = system: SR leukemia
KM12 colon = system: KM12 colon
OVCAR-8 ovarian = system: OVCAR-8 ovarian
EKVX NSCLC = system: EKVX NSCLC
RPMI-8226 leukemia = system: RPMI-8226 leukemia
ACHN renal = system: ACHN renal
SF-295 CNS = system: SF-295 CNS
SF-268 CNS = system: SF-268 CNS
NCI-H522 lung = system: NCI-H522 lung

SMILES: CCOC(=O)c1c(NC(=O)c2cccc(C(F)(F)F)c2)sc2c3c(ccc12)OCN(C)C3
- GI50 (MOLT-4 leukemia): 1860 nM
- TGI (MOLT-4 leukemia): 4540 nM
- GI50 (HL-60(TB) leukemia): 1540 nM
- TGI (HL-60(TB) leukemia): 4290 nM
- GI50 (HCT-116 colon): 1950 nM
- TGI (HCT-116 colon): 4740 nM
- GI50 (TK-10 renal): 1910 nM
- TGI (TK-10 renal): 3810 nM
- GI50 (T-47D breast): 1940 nM
- TGI (T-47D breast): 4570 nM
- GI50 (CAKI-1 renal): 1570 nM
- TGI (CAKI-1 renal): 2990 nM
- GI50 (SNB-19 CNS): 1790 nM
- TGI (SNB-19 CNS): 3640 nM
- GI50 (SF-539 CNS): 1660 nM
- TGI (SF-539 CNS): 3190 nM
- GI50 (OVCAR-5 ovarian): 1670 nM
- TGI (OVCAR-5 ovarian): 3150 nM
- GI50 (MDA-MB-435): 1690 nM
- TGI (MDA-MB-435): 3130 nM
- GI50 (OVCAR-4 ovarian): 1790 nM
- TGI (OVCAR-4 ovarian): 3610 nM
- GI50 (NCI-H226 lung): 1780 nM
- TGI (NCI-H226 lung): 3780 nM
- GI50 (SN12C renal): 1800 nM
- TGI (SN12C renal): 3530 nM
- GI50 (U251 CNS): 1850 nM
- TGI (U251 CNS): 3930 nM
- GI50 (NCI-H460 lung): 1640 nM
- TGI (NCI-H460 lung): 3280 nM
- GI50 (K-562 leukemia): 394 nM
- TGI (K-562 leukemia): 1800 nM
- GI50 (SR leukemia): 463 nM
- TGI (SR leukemia): 4580 nM
- GI50 (KM12 colon): 1680 nM
- TGI (KM12 colon): 3190 nM
- GI50 (OVCAR-8 ovarian): 2260 nM
- TGI (OVCAR-8 ovarian): 5240 nM
- GI50 (EKVX NSCLC): 1640 nM
- TGI (EKVX NSCLC): 3240 nM
- GI50 (RPMI-8226 leukemia): 1540 nM
- TGI (RPMI-8226 leukemia): 4270 nM
- GI50 (ACHN renal): 1760 nM
- TGI (ACHN renal): 3270 nM
- GI50 (SF-295 CNS): 1780 nM
- TGI (SF-295 CNS): 3350 nM
- GI50 (SF-268 CNS): 1890 nM
- TGI (SF-268 CNS): 3790 nM
- GI50 (NCI-H522 lung): 2220 nM

Source: PubChem BioAssay (NCI)
